ChEMBL document CHEMBL6127065, “Design and Synthesis of c-Met and HDAC Dual Inhibitors for the Treatment of Breast Cancer” (ACS Med Chem Lett, 2024)
The source made the active and inactive calls. No cut-off for these calls is given here.

Key:
[1] = tested on: MDA-MB-231; assay: Induction of apoptosis in human MDA-MB-231 cells assessed as viable cells at 2.5 uM incubated for 48 hrs by AnnexinV-FITC/PI staining based flow cytometry (reference value: 91.22 to 92.84%); assay type: functional; settings: read-out: Activity
[2] = tested on: MDA-MB-231; assay: Induction of apoptosis in human MDA-MB-231 cells assessed as late apoptotic cells at 2.5 uM incubated for 48 hrs by AnnexinV-FITC/PI staining based flow cytometry (reference value: 3.77 to 3.84%); assay type: functional
[3] = Cytotoxicity against human MCF-10A cells assessed as reduction in cell viability incubated for 72 hrs by MTT assay; assay type: toxicity, cell-based
[4] = tested on: MDA-MB-231; assay: Induction of cell cycle arrest in human MDA-MB-231 cells assessed as accumulation of cells at G0/G1 phase at 2.5 uM incubated for 48 hrs by PI staining based flow cytometry (reference value: 55.36 to 55.82%); assay type: functional
[5] = tested on: MDA-MB-231; assay: Inhibition of colony formation in human MDA-MB-231 cells at 1 to 25 uM incubated for 7 days by crystal violet staining based analysis; assay type: functional, cell-based; settings: dose 1-25 µM, time 7.0 day
[6] = tested on: MDA-MB-231; assay: Induction of cell cycle arrest in human MDA-MB-231 cells assessed as accumulation of cells at G2/M phase at 1 uM incubated for 48 hrs by PI staining based flow cytometry (reference value: 29.42 to 32.08%); assay type: functional
[7] = tested on: MDA-MB-231; assay: Induction of apoptosis in human MDA-MB-231 cells assessed as viable cells at 5 uM incubated for 48 hrs by AnnexinV-FITC/PI staining based flow cytometry (reference value: 91.22 to 92.84%); assay type: functional; settings: read-out: Activity
[8] = tested on: MDA-MB-231; assay: Induction of apoptosis in human MDA-MB-231 cells assessed as upregulation of cleaved caspase 8 level at 1 to 25 uM incubated for 48 hrs by western blot analysis; assay type: functional, cell-based; settings: dose 1-25 µM
[9] = tested on: MDA-MB-231; assay: Antiproliferative activity against human MDA-MB-231 cells assessed as reduction in cell growth incubated for 72 hrs by MTT assay; settings: MDA-MB-231, 72 h
[10] = tested on: MDA-MB-231; assay: Induction of cell cycle arrest in human MDA-MB-231 cells assessed as accumulation of cells at S phase at 1 uM incubated for 48 hrs by PI staining based flow cytometry (reference value: 12.56 to 14.76%); assay type: functional
[11] = tested on: MDA-MB-231; assay: Induction of cell cycle arrest in human MDA-MB-231 cells assessed as accumulation of cells at G0/G1 phase at 25 uM incubated for 48 hrs by PI staining based flow cytometry (reference value: 55.36 to 55.82%); assay type: functional
[12] = tested on: MDA-MB-231; assay: Induction of apoptosis in human MDA-MB-231 cells assessed as early apoptotic cells at 2.5 uM incubated for 48 hrs by AnnexinV-FITC/PI staining based flow cytometry (reference value: 1.6 to 2.41%); assay type: functional
[13] = tested on: MDA-MB-231; assay: Induction of apoptosis in human MDA-MB-231 cells assessed as early apoptotic cells at 25 uM incubated for 48 hrs by AnnexinV-FITC/PI staining based flow cytometry (reference value: 1.6 to 2.41%); assay type: functional
[14] = tested on: MDA-MB-231; assay: Induction of apoptosis in human MDA-MB-231 cells assessed as necrotic cells at 5 uM incubated for 48 hrs by AnnexinV-FITC/PI staining based flow cytometry (reference value: 1.79 to 2.53%); assay type: functional
[15] = tested on: MDA-MB-231; assay: Induction of cell cycle arrest in human MDA-MB-231 cells assessed as accumulation of cells at G0/G1 phase at 10 uM incubated for 48 hrs by PI staining based flow cytometry (reference value: 55.36 to 55.82%); assay type: functional
[16] = tested on: MDA-MB-231; assay: Induction of apoptosis in human MDA-MB-231 cells assessed as upregulation of cleaved caspase 7 level at 1 to 25 uM incubated for 48 hrs by western blot analysis; assay type: functional, cell-based; settings: dose 1-25 µM
[17] = tested on: MDA-MB-231; assay: Anti-migration activity in human MDA-MB-231 cells assessed as inhibition of cell invasion incubated for 72 hrs by Transwell assay; assay type: functional, cell-based; settings: dose 1-25 µM
[18] = molecular target: T1, Hepatocyte growth factor receptor (Homo sapiens, UniProt P08581); assay: Inhibition of c-Met in human MDA-MB-231 cells assessed as inhibition of ERK phosphorylation incubated for 48 hrs by western blot analysis; assay type: cell-based; settings: dose 1-25 µM
T1 sequence (P08581 whole entry): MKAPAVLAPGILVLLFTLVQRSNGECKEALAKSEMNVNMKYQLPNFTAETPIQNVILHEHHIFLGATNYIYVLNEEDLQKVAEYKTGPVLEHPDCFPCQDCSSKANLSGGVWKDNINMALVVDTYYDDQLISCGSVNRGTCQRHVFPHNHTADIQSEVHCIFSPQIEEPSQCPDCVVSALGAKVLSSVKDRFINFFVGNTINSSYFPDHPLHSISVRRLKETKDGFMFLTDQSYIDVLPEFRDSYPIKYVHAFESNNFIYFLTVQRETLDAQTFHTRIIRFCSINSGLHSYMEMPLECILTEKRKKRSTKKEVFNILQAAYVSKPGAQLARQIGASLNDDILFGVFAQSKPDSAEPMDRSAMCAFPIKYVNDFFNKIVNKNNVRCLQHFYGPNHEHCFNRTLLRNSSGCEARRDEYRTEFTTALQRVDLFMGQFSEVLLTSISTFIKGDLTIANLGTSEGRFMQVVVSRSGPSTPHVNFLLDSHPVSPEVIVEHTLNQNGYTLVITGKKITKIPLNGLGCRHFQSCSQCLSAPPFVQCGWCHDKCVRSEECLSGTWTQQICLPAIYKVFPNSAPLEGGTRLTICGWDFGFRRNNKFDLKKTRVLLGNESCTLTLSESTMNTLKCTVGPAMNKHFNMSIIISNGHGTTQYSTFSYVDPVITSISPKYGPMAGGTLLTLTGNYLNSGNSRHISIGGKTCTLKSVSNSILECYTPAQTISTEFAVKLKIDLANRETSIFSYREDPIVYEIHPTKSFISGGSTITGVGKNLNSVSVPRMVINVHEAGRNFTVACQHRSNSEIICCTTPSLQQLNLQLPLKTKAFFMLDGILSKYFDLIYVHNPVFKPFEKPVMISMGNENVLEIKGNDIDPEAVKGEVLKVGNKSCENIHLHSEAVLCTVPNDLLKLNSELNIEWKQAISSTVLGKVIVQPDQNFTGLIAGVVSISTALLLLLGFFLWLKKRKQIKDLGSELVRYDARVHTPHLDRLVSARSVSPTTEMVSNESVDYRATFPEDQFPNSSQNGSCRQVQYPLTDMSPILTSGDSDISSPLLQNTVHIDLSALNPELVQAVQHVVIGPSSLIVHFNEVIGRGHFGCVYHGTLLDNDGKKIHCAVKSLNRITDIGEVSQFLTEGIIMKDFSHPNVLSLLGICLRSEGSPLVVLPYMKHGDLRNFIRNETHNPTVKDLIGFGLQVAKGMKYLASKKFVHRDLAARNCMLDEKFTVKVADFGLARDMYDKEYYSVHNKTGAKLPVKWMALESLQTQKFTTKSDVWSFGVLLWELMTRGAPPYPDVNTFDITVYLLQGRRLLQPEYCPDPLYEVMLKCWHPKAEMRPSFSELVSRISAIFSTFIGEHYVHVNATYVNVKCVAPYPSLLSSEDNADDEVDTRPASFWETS

[19] = tested on: MDA-MB-231; assay: Induction of cell cycle arrest in human MDA-MB-231 cells assessed as accumulation of cells at S phase at 25 uM incubated for 48 hrs by PI staining based flow cytometry (reference value: 12.56 to 14.76%); assay type: functional
[20] = tested on: MDA-MB-231; assay: Induction of apoptosis in human MDA-MB-231 cells assessed as early apoptotic cells at 10 uM incubated for 48 hrs by AnnexinV-FITC/PI staining based flow cytometry (reference value: 1.6 to 2.41%); assay type: functional
[21] = tested on: MDA-MB-231; assay: Induction of apoptosis in human MDA-MB-231 cells assessed as upregulation of cleaved caspase 3 level at 1 to 25 uM incubated for 48 hrs by western blot analysis; assay type: functional, cell-based; settings: dose 1-25 µM
[22] = tested on: MDA-MB-231; assay: Induction of cell cycle arrest in human MDA-MB-231 cells assessed as accumulation of cells at S phase at 10 uM incubated for 48 hrs by PI staining based flow cytometry (reference value: 12.56 to 14.76%); assay type: functional
[23] = tested on: MDA-MB-231; assay: Induction of apoptosis in human MDA-MB-231 cells assessed as late apoptotic cells at 25 uM incubated for 48 hrs by AnnexinV-FITC/PI staining based flow cytometry (reference value: 3.77 to 3.84%); assay type: functional
[24] = tested on: MDA-MB-231; assay: Induction of apoptosis in human MDA-MB-231 cells assessed as necrotic cells at 25 uM incubated for 48 hrs by AnnexinV-FITC/PI staining based flow cytometry (reference value: 1.79 to 2.53%); assay type: functional
[25] = molecular target: T1, Hepatocyte growth factor receptor; assay: Inhibition of c-Met in human MDA-MB-231 cells assessed as inhibition of Akt phosphorylation at […] residue incubated for 48 hrs by western blot analysis; assay type: cell-based; settings: dose 1-25 µM
[26] = molecular target: T1, Hepatocyte growth factor receptor; assay: Inhibition of c-Met (unknown origin) using Poly(Glu:Tyr)(4:1) and ATP as substrate incubated for 45 mins by Kinase-Glo Max reagent based luminescence analysis
[27] = tested on: MDA-MB-231; assay: Induction of apoptosis in human MDA-MB-231 cells assessed as late apoptotic cells at 5 uM incubated for 48 hrs by AnnexinV-FITC/PI staining based flow cytometry (reference value: 3.77 to 3.84%); assay type: functional
[28] = tested on: MDA-MB-231; assay: Induction of apoptosis in human MDA-MB-231 cells assessed as viable cells at 10 uM incubated for 48 hrs by AnnexinV-FITC/PI staining based flow cytometry (reference value: 91.22 to 92.84%); assay type: functional; settings: read-out: Activity
[29] = tested on: MDA-MB-231; assay: Induction of apoptosis in human MDA-MB-231 cells assessed as necrotic cells at 2.5 uM incubated for 48 hrs by AnnexinV-FITC/PI staining based flow cytometry (reference value: 1.79 to 2.53%); assay type: functional
[30] = tested on: MDA-MB-231; assay: Induction of apoptosis in human MDA-MB-231 cells assessed as early apoptotic cells at 5 uM incubated for 48 hrs by AnnexinV-FITC/PI staining based flow cytometry (reference value: 1.6 to 2.41%); assay type: functional
[31] = tested on: MDA-MB-453; assay: Antiproliferative activity against human MDA-MB-453 cells assessed as reduction in cell growth incubated for 72 hrs by MTT assay; settings: MDA-MB-453, 72 h

Work on `CC(c1ccc2ncccc2c1)n1nnc2ncc(N3CCN(Cc4ccc(/C=C/C(=O)Nc5ccccc5N)cc4)CC3)nc21` (stereo unspecified) yielded a viability at 2.5 µM [1] of 84.3%, an Activity [2] of 6.97% and an IC50 at 72 h [3] greater than 25 µM. For the same compound, the Activity [4] was 67.14%, the inhibition [5] was “Dose-Dependent Effect” and the Activity [6] was 27.08%. The viability at 5 µM [7] was 85.5%, the Activity [8] was “Active” and the IC50 [9] was 3.57 µM. It also gave an Activity [10] of 7.57%, an Activity [11] of 83.37% and an Activity [12] of 4.92%. It also gave an Activity [13] of 3.51%, an Activity [14] of 4.59% and an Activity [15] of 75.71%. The Activity [16] was “Active”, the Activity [17] was “Dose-Dependent Effect” and the inhibition [18] was “Dose-Dependent Effect”. For the same compound, the Activity [19] was 6.06%, the Activity [20] was 4.56% and the Activity [21] was “Active”. It also gave an Activity [22] of 8.21%, an Activity [23] of 12.3% and an Activity [24] of 1.42%. The inhibition [25] was “Dose-Dependent Effect”, the IC50 [26] was 28.9 nM and the Activity [27] was 6.84%. The viability at 10 µM [28] was 83.1%, the Activity [29] was 3.83% and the Activity [30] was 3.1%. The IC50 [31] was 5.47 µM.
